≈ marks a conversion by molar mass, not a printed value.
Experiments:
[1] = Metabolic stability: intrinsic clearance in human liver microsomes; assay type: in vitro ADME; conditions: 1 μM compound, up to 45 minutes
Protocol: Metabolic stability: Subcellular liver fractions and primary hepatocytes from different species were used to determine the in vitro intrinsic clearance of a compound in various species. The liver microsomal and hepatocytes in vitro half-life approach can be a suitable approach to measure intrinsic clearance in vitro, which can be scaled up to the in vivo situation and used in the prediction of human clearance (Obach et al., 1997). For this approach, […] were incubated for up to 45 minutes in subcellular liver fractions or 2 h in primary hepatocytes at final compound concentration of 1 μM. Disappearance of parent compound was determined by LC-MS analysis and intrinsic clearance calculated from the slope of compound disappearance thereof.
Metabolic stability of the compounds according to the present invention (inv.) and reference compounds (ref.) in human liver microsomes and inhibition of the human cytochrome P450 (CYP450) isoforms 3A4, 2C9 and 2D6 are given in Table 4 hereafter.

CHO cells = test: Genetic toxicology: in vitro micronuclei formation in CHO cells; assay type: cell-based, Chinese hamster; conditions: 24 h treatment, ratio versus untreated cells
Protocol: Genetic toxicology testing of compounds to assess their ability to cause DNA damage was done in vitro in mammalian cell assays (CHO cells). The formation of micronuclei, small DNA-staining particles outside of the nucleus, was investigated in mononucleated and binucleated cells treated with increasing concentrations of a test compound for 24 h. DNA was stained with Hoechst 33342 (Mutat Res. 630:1-13, 2007), read with a high-content screening microscope (Opera Phenix, Perkin Elmer) and scored with an optimized algorithm using Harmony. Micronucleii associated with valid cells were enumerated and induction of micronuclei formation tabulated as ratio versus untreated cells if the fraction of valid cells was ≥0.2.
Genetic toxicity potential of the compound of Example 1 according to the present invention (inv.) and reference compounds (ref.) was assessed and the corresponding test results are given in Table 3 hereafter.

P. aeruginosa ATCC27853 = test: Bacterial growth minimal inhibitory concentration (microdilution), P. aeruginosa ATCC27853; assay type: cell-based; conditions: Pseudomonas aeruginosa, quinolone-sensitive strain, cation-adjusted Mueller-Hinton Broth, read-out: MIC for P. aeruginosa AT0027853
Protocol: (§1) Bacterial growth minimal inhibitory concentrations: Minimal inhibitory concentrations (MICs; mg/L) were determined in cation-adjusted Mueller-Hinton Broth by a microdilution method following the description given in “Methods for Dilution Antimicrobial Susceptibility Tests for Bacteria that Grow Aerobically”, Approved standard, 7th ed., Clinical and Laboratory Standards Institute (CLSI) Document M7-A7, Wayne, Pa., USA (2006).
(§2) The compound of Example 1 according to the present invention (inv.) and reference compounds 4 (ref.) to 9 (ref.) were tested against several Gram-positive and Gram-negative bacteria. Staphylococcus aureus A798 is a multiply resistant strain (in particular quinolone-resistant), Klebsiella pneumoniae A-651 is a multiply resistant strain (in particular quinolone-resistant), while E. coli ATCC25922 and P. aeruginosa ATCC27853 are quinolone-sensitive strains. The corresponding antibacterial test results are given in Table 1 hereafter (MICs in mg/L).

E. coli ATCC25922 = test: Bacterial growth minimal inhibitory concentration (microdilution), E. coli ATCC25922; assay type: cell-based; conditions: Escherichia coli, quinolone-sensitive strain, cation-adjusted Mueller-Hinton Broth
Protocol: as §1, §2

[2] = tested on: Klebsiella pneumoniae A-651; test: Bacterial growth minimal inhibitory concentration (microdilution), K. pneumoniae A-651; assay type: cell-based; conditions: A651, multiply resistant (quinolone-resistant) strain, cation-adjusted Mueller-Hinton Broth
Protocol: as §1, §2

[3] = tested on: CYP3A4, CYP2C9 and CYP2D6 (lowest IC50 of the isoforms measured); test: Cytochrome P450 inhibition in human liver microsomes; assay type: in vitro ADME; conditions: lowest of isoforms 3A4, 2C9 and 2D6, 0-100 μM test compound, read-out: CYP450 lowest IC50 of the isoenzymes measured
Protocol: Cytochrome P450 inhibition: The objective of this in vitro assay was to assess potential inhibition of the human cytochrome P450 (CYP450) isoforms 3A4, 2C9 and 2D6 using human liver microsomes and isoform-specific marker reactions. […] This may affect plasma levels in vivo and potentially lead to adverse drug reactions or toxicity. Technically, specific marker-substrate of P450 enzymes were incubated with human liver microsomes in the presence/absence of a test compounds. The inhibition effect of the test compound towards the marker reaction was determined in incubations containing 0-100 μM of the test compound. The inhibitory effect was determined by the impact of the different compound concentrations towards the metabolite formation of the marker reaction. Formation of the metabolites was determined by LC-MS analysis. Metabolic stability of the compounds according to the present invention (inv.) and reference compounds (ref.) in human liver microsomes and inhibition of the human cytochrome P450 (CYP450) isoforms 3A4, 2C9 and 2D6 are given in Table 4 hereafter.

[4] = tested on: Staphylococcus aureus A798; test: Bacterial growth minimal inhibitory concentration (microdilution), S. aureus A798; assay type: cell-based; conditions: multiply resistant (quinolone-resistant) strain, cation-adjusted Mueller-Hinton Broth
Protocol: as §1, §2

wild-type E. coli A-1261 = test: MIC against wild-type E. coli A-1261 with or without alkaline phosphatase or esterase (prodrug activation); assay type: cell-based; conditions: for MIC for E. coli A-1261 In the presence of an alkaline phosphatase (2 i.U./mL): alkaline phosphatase from bovine intestinal mucosa; for MIC for E. coli A-1261 In the presence of an esterase (10 i.U./mL): esterase from porcine liver; for MIC for E. coli A-1261 In the absence of alkaline phosphatase and esterase: no alkaline phosphatase, no esterase
Protocol: as §1
The compounds of Examples 2 and 3 of the present invention (inv.) were tested against wild-type E. coli A-1261 in the presence of alkaline phosphatase (from bovine intestinal mucosa: Sigma P6774-2KU; Lot: SLBB1168) or esterase (from porcine liver: Sigma E2884-5KU; Lot: 129K7010V), and in the absence of an alkaline phosphatase and esterase. The corresponding antibacterial test results are given in Table 2 hereafter (MICs in mg/L).

| SMILES | Intrinsic clearance in human liver microsomes [1] | Maximal induction of micronuclei formation normalized vs. background (CHO cells) | MIC (P. aeruginosa ATCC27853) [µg/mL] | MIC (E. coli ATCC25922) [µg/mL] | MIC [2] [µg/mL] | IC50 [3] [µM] | MIC [4] [µg/mL] | MIC for E. coli A-1261 In the presence of an alkaline phosphatase (2 i.U./mL) (wild-type E. coli A-1261) [mg/L] | MIC for E. coli A-1261 In the presence of an esterase (10 i.U./mL) (wild-type E. coli A-1261) [mg/L] | MIC for E. coli A-1261 In the absence of alkaline phosphatase and esterase (wild-type E. coli A-1261) [mg/L] |
| --- | --- | --- | --- | --- | --- | --- | --- | --- | --- | --- |
| O=C1COc2ccc(N3C[C@H](CCCN[C@@H]4Cn5c(=O)ccc6cccc4c65)OC3=O)nc2N1 [Example 1, (S)-1-{3-[(S)-2-oxo-3-(3-oxo-3,4-dihydro-2H-pyrido[3,2-b][1,4]oxazin-6-yl)-oxazolidin-5-yl]-propylamino}-1,2-dihydro-pyrrolo[3,2,1-ij]quinolin-4-one] | 15 μL/min * mg microsomal protein | 2.5 | 1 (≈ 2.17 µM) | 0.25 (≈ 0.542 µM) | 0.5 (≈ 1.08 µM) | > 50 | 0.031 (≈ 0.0672 µM) | – | – | – |
| O=C1COc2ccc(N3C[C@H](CCCN(C(=O)OCOP(=O)(O)O)[C@@H]4Cn5c(=O)ccc6cccc4c65)OC3=O)nc2N1 [Example 2] | – | – | – | – | – | – | – | 0.25 | >8 | >8 |
| O=C1COc2ccc(N3C[C@H](CCCN(C(=O)OCOC(=O)CCc4ccccc4OP(=O)(O)O)[C@@H]4Cn5c(=O)ccc6cccc4c65)OC3=O)nc2N1 [Example 3] | – | – | – | – | – | – | – | 0.25 | 1 | >8 |

Reference: patent US10633395B2, “Aryloxazolidinone antibiotic compounds” (Idorsia Pharmaceuticals Ltd., priority 2017, dated 2020)
